Laboratory results taken from patent publication US8771691B2, “Methods for the treatment and the prognostic assessment of malignant pleural mesothelioma” (Inserm (Institut National de la Sante et de la Recherche …, priority 2008, dated 2014).

Assays:
MSTO-211H cells [1] = test: Cellular growth of MSTO-211H cells; type: cell-based, human; details: 10^-6 M; cells counted after 24, 48 and 72 h
Method: (§1) The human mesothelioma cell line, MSTO-211H, was selected because of its intense proliferative activity and its aggressive profile (ATCC CRL-2081, 211H). The MSTO-211H cells were grown in RPMI-1640 medium (Invitrogen, USA) supplemented with 10% fetal calf serum (PAATM) and 2 mM glutamine (Gibco®). Cells were stored at 37° in 5% CO2 atmosphere.
Cellular growth was performed using 6 well-tissue-culture dishes. 15×10^4 MSTO-211H cells were seeded, after 24 h cells were washed twice with PBS, and complete media containing either 10^−6M SR 48692, a NTSR1 antagonist, or 10^−4M de DMSO was added to the cells. After 24, 48, and 72 h of growth, cells were trypsinized and counted with a cells coulter (Z1 Coulter® Particle Counter, Beckman Coulter™).

MSTO-211H cells [2] = test: Collagen invasion assay (type I collagen); type: cell-based, human; details: 5x10^-6 M SR48692 or 1:50 anti-NTS antibody; 48 hours; controls 13% (untreated), 11% (DMSO)
Method: as §1
Collagen invasion assay was performed by using tissue culture inserts composed of a 8 μm porous polycarbonate membrane, placed as inner chamber in 24 well-tissue-culture dishes. This membrane was coated with […] of 2 mg/ml type I collagen diluted in RPMI-1640 medium (Collagen type I, rat tail, Upstate). The bottom chamber was filled with 500 μL RPMI-1640 medium supplemented with 10% fetal calf serum and 2 mM glutamine. 10^3 MSTO-211H cells were seeded on the top of the inner chamber. Cells were treated with 5×10^−6 M of NTSR1 antagonist SR48692 or with 1:50 solution of anti-NTS rabbit antibody (NA1230, Tebu-Bio). Cells were placed for 48 hours at 37° C. in 5% CO2 atmosphere. After incubation, non invasive cells on the upper surface of the collagen matrix were wiped off with cotton swabs. Filter membranes were fixed with 5% glutaraldehyde and remaining cells stained with 0.5% toluidine blue. Quantitation of invasive cells was carried out at the 400× magnification by using the software CELINA.

MSTO-211H cells [3] = test: Wound healing assay (cell migration); type: cell-based, human; details: 10^-6 M; at 24 and 30 hours; 0.5% FCS; controls 27% (untreated), 30% (DMSO)
Method: as §1
In order to evaluate the impact of the neurotensinergic system on cell migration, a wound healing assay was performed. 1.75×10^6 MSTO-211H cells were plated per well in 6 well dishes containing the medium in order to reach confluence. After 24 hours cells were serum-starved and scarification was performed in a Moscona buffer with a 20 μl pipette tip. Cells were maintained in culture with low serum medium (0.5% FCS) and treated with 10^−6 M SR48692. Control cells were exposed or not to the SR48692 solvent, DMSO. Pictures were taken at the beginning and 24 and 30 hours later with a photonic microscope. The “remaining gap” was calculated as percentage between wound size at 30 hours and initial wound size.

[4] = patients with MPM, randomized study, two arms; cited from earlier work

Compound: COc1cccc(OC)c1-c1cc(C(=O)NC2(C(=O)O)C3CC4CC(C3)CC2C4)nn1-c1ccnc2cc(Cl)ccc12 (stereo not shown) [SR48692]
- effect on cell growth (MSTO-211H cells [1]): no effect
- cells that invaded the type I collagen (MSTO-211H cells [2]): 4%
- residual gap (% of original gap) (MSTO-211H cells [3]): 48%

Compound: N.N.[Cl][Pt][Cl] [cisplatin]
- median survival [4]: 9.3 months
